Source: patent US9878986B2, “Compounds for selective histone deacetylase inhibitors, and pharmaceutical composition comprising the same” (CHONG KUN DANG PHARMACEUTICAL CORP., priority 2013, dated 2018)

Legend:
[1] = molecular target: T1, HDAC 6 (Homo sapiens, UniProt Q9UBN7); experiment: Test of HDAC activities, HDAC6 (fluorimetric); type: biochemical; design: purchased Calbiochem 382180; conditions: samples at 0.1, 1, 10, 100, 1000 nM; 37° C. 60 minutes; fluorescence Ex 390, Em 460; read-out: HDAC inhibitory activities, HDAC6
T1 sequence (Q9UBN7 1-1215): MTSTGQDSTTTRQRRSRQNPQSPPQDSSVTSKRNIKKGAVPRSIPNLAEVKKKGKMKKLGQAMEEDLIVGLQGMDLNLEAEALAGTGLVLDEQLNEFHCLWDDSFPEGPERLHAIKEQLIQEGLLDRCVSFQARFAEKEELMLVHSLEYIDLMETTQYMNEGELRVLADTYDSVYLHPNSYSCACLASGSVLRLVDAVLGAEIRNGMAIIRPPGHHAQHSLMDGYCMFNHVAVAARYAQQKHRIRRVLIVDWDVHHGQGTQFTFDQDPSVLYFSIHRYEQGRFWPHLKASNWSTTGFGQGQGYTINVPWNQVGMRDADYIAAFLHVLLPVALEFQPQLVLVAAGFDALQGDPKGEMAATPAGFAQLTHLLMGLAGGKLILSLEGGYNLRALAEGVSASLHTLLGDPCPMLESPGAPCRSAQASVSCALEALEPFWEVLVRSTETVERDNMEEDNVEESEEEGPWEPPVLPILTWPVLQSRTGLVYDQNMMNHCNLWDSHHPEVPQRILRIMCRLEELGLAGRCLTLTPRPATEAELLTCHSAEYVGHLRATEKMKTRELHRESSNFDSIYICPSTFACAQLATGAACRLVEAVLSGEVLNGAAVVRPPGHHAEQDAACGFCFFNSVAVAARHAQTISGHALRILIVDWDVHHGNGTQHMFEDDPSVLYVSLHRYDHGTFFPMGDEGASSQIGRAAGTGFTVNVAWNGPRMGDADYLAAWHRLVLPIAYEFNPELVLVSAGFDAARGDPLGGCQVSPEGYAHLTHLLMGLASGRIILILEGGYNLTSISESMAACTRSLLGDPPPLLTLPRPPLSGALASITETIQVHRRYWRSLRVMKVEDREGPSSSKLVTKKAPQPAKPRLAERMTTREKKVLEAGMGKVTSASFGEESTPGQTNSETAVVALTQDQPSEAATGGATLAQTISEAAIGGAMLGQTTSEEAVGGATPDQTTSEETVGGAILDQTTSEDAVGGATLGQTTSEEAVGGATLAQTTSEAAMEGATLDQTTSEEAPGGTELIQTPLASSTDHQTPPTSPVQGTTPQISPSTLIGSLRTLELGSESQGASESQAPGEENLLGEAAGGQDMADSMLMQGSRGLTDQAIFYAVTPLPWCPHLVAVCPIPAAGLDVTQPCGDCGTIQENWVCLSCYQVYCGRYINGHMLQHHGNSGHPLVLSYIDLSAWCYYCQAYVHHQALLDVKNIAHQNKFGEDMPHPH
Procedure, shortened: (§1)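 HDAC1 tested at 100, 1000 and 10000 nM; recombinant human HDAC6 at 0.1, 1, 10, 100 and 1000 nM. Reaction 60 min at 37° C, then developer for 30 min at 37° C; fluorescence read at Ex 390/Em 460.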

[2] = molecular target: HDAC1 (Homo sapiens, UniProt Q13547); experiment: Test of HDAC activities, HDAC1 Fluorimetric Drug Discovery Assay Kit; type: biochemical; design: purchased Enzolifesciences BML-AK511; conditions: samples at 100, 1000, 10000 nM; 37° C. 60 minutes; fluorescence Ex 390, Em 460; read-out: HDAC inhibitory activities, HDAC1
Procedure, shortened: as §1

HDAC1, sequence (Q13547 whole entry): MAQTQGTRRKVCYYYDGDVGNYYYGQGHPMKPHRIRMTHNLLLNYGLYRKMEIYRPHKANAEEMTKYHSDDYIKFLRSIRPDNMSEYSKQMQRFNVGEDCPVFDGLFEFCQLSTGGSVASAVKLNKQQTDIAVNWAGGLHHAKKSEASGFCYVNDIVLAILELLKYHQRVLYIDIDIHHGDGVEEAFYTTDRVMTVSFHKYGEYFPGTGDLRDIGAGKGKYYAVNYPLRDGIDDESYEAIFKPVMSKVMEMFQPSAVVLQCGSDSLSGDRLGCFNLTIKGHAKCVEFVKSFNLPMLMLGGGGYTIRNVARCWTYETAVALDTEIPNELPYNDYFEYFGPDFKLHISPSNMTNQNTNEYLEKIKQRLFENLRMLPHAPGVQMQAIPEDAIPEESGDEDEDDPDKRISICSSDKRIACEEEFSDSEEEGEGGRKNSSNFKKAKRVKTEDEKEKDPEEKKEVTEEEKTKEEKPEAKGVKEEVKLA

IC50 [1] | IC50 [2] | Compound
21 nM | 667 nM | O=C(NO)c1ccc(CN(C(=O)N2CCCOCC2)c2ccc(C(F)(F)F)cc2)cc1 [Compound 580, N-(4-(hydroxycarbamoyl)benzyl)-N-(4-(trifluoromethyl)phenyl)-1,4-oxazepane-4-carboxamide]
4.6 nM | 765 nM | O=C(NO)c1ccc(CN(C(=O)N2CCN(CC3(O)CCOCC3)CC2)c2cccc(C(F)(F)F)c2)cc1 [Compound 651, 4-((4-hydroxy-tetrahydro-2H-pyran-4-yl)methyl)-N-(4-(hydroxycarbamoyl)benzyl)-N-(3-(trifluoromethyl)phenyl)piperazine-1-carboxamide]
1.4 nM | 545 nM | O=C(NO)c1ccc(CN(C(=O)N2CCN(Cc3ccccc3)CC2)c2cccc(C(F)(F)F)c2)cc1 [Compound 683, 4-benzyl-N-(4-(hydroxycarbamoyl)benzyl)-N-(3-(trifluoromethyl)phenyl)piperazine-1-carboxamide]
19 nM | 4980 nM | COc1cccc(N2CCN(C(=O)N(Cc3ccc(C(=O)NO)cc3)c3cccc(C(F)(F)F)c3)CC2)c1 [Compound 684, N-(4-(hydroxycarbamoyl)benzyl)-4-(3-methoxyphenyl)-N-(3-(trifluoromethyl)phenyl)piperazine-1-carboxamide]
6.4 nM | 727 nM | O=C(NO)c1ccc(CN(C(=O)N2CCN(CC3(F)CCOCC3)CC2)c2cccc(C(F)(F)F)c2)cc1 [Compound 716, 4-((4-fluorotetrahydro-2H-pyran-4-yl)methyl)-N-(4-(hydroxycarbamoyl)benzyl)-N-(3-(trifluoromethyl)phenyl)piperazine-1-carboxamide]
24 nM | 2370 nM | O=C(NO)c1ccc(CN(C(=O)N2CCN(c3ccccc3)CC2)c2cccc(C(F)(F)F)c2)cc1 [Compound 717, N-(4-(hydroxycarbamoyl)benzyl)-4-phenyl-N-(3-(trifluoromethyl)phenyl)piperazine-1-carboxamide]
405 nM | 8540 nM | O=C(NO)c1ccc(CN(C(=O)N2CCN(C(c3ccccc3)c3ccccc3)CC2)c2cccc(C(F)(F)F)c2)cc1 [Compound 718, 4-benzhydryl-N-(4-(hydroxycarbamoyl)benzyl)-N-(3-(trifluoromethyl)phenyl)piperazine-1-carboxamide]
1.8 nM | 433 nM | CCN1CCN(C(=O)N(Cc2ccc(C(=O)NO)cc2)c2cccc(CF)c2)CC1 [Compound 765, 4-ethyl-N-(3-(fluoromethyl)phenyl)-N-(4-(hydroxycarbamoyl)benzyl)piperazine-1-carboxamide]

Second part, the compound before the results:

Compound | IC50 [1] | IC50 [2]
O=C(NO)c1ccc(CN(C(=O)N2CCC(O)CC2)c2cccc(C3=CCOCC3)c2)c(F)c1 [Compound 514, N-(3-(3,6-dihydro-2H-pyran-4-yl)phenyl)-N-(2-fluoro-4-(hydroxycarbamoyl)benzyl)-4-hydroxypiperidine-1-carboxamide] | 15 nM | 1240 nM
CC(C)(O)CN1CCC(c2cccc(N(Cc3ccc(C(=O)NO)cc3)C(=O)N3CCOCC3)c2)CC1 [Compound 517, N-(3-(1-(2-hydroxy-2-methylpropyl)piperidine-4-yl)phenyl)-N-(4-(hydroxycarbamoyl)benzyl)morpholine-4-carboxamide] | 28 nM | 427 nM
CC(C)(F)CN1CCC(c2cccc(N(Cc3ccc(C(=O)NO)cc3)C(=O)N3CCOCC3)c2)CC1 [Compound 518, N-(3-(1-(2-fluoro-2-methylpropyl)piperidine-4-yl)phenyl)-N-(4-(hydroxycarbamoyl)benzyl)morpholine-4-carboxamide] | 14 nM | 495 nM
O=C(NO)c1ccc(CN(C(=O)N2CC[C@@H](F)C2)c2ccc(C(F)(F)F)cc2)cc1 [Compound 520, (R)-3-fluoro-N-(4-(hydroxycarbamoyl)benzyl)-N-(4-(trifluoromethyl)phenyl)pyrrolidine-1-carboxamide] | 36 nM | 1170 nM
O=C(NO)c1ccc(CN(C(=O)N2CC[C@H](F)C2)c2ccc(C(F)(F)F)cc2)cc1 [Compound 521, (S)-3-fluoro-N-(4-(hydroxycarbamoyl)benzyl)-N-(4-(trifluoromethyl)phenyl)pyrrolidine-1-carboxamide] | 10 nM | 261 nM
O=C(NO)c1ccc(CN(C(=O)N2CCC[C@@H]2CO)c2ccc(C(F)(F)F)cc2)cc1 [Compound 522, (R)—N-(4-(hydroxycarbamoyl)benzyl)-2-(hydroxymethyl)-N-(4-(trifluoromethyl)phenyl)pyrrolidine-1-carboxamide] | 11 nM | 177 nM
CC(=O)N1CCN(C(=O)N(Cc2ccc(C(=O)NO)cc2)c2cccc(F)c2)CC1 [Compound 529, 4-acetyl-N-(3-fluorophenyl)-N-(4-(hydroxycarbamoyl)benzyl)piperazine-1-carboxamide] | 2 nM | 574 nM
O=C(NO)c1ccc(CN(C(=O)N2CCOCC2)c2cccc(F)c2)cc1 [Compound 530, N-(3-fluorophenyl)-N-(4-(hydroxycarbamoyl)benzyl)morpholine-4-carboxamide] | 1.4 nM | 161 nM
CC(C)(F)CN1CCN(C(=O)N(Cc2ccc(C(=O)NO)cc2)c2cccc(C(F)(F)F)c2)CC1 [Compound 531, 4-(2-fluoro-2-methylpropyl)-N-(4-(hydroxycarbamoyl)benzyl)-N-(3-(trifluoromethyl)phenyl)piperazine-1-carboxamide] | 5.1 nM | 1820 nM
O=C(NO)c1ccc(CN(C(=O)N2CCOCC2)c2cccc(C(F)(F)F)c2)c(F)c1 [Compound 532, N-(2-fluoro-4-(hydroxycarbamoyl)benzyl)-N-(3-(trifluoromethyl)phenyl)morpholine-4-carboxamide] | 1.9 nM | 577 nM
O=C(NO)c1ccc(CN(C(=O)N2CCOCC2)c2ccc(Cl)cn2)cc1 [Compound 533, N-(5-chloropyridin-2-yl)-N-(4-(hydroxycarbamoyl)benzyl)morpholine-4-carboxamide] | 4.5 nM | 1890 nM
O=C(NO)c1ccc(CN(C(=O)N2CCN(CCN3CCOCC3)CC2)c2ccc(C(F)(F)F)cc2)cc1 [Compound 543, N-(4-(hydroxycarbamoyl)benzyl)-4-(2-morpholinoethyl)-N-(4-(trifluoromethyl)phenyl)piperazine-1-carboxamide] | 9 nM | 447 nM
O=C(NO)c1ccc(CN(C(=O)N2CCN(c3ccncc3)CC2)c2ccc(C(F)(F)F)cc2)cc1 [Compound 544, N-(4-(hydroxycarbamoyl)benzyl)-4-(pyridin-4-yl)-N-(4-(trifluoromethyl)phenyl)piperazine-1-carboxamide] | 21 nM | 503 nM
O=C(NO)c1ccc(CN(C(=O)N2CCN(CC(=O)N3CCOCC3)CC2)c2ccc(C(F)(F)F)cc2)cc1 [Compound 545, N-(4-(hydroxycarbamoyl)benzyl)-4-(2-morpholino-2-oxoethyl)-N-(4-(trifluoromethyl)phenyl)piperazine-1-carboxamide] | 17 nM | 545 nM
O=C(NO)c1ccc(CN(C(=O)N2CCOCC2)c2ccc(C(F)(F)F)cc2)c(F)c1 [Compound 577, N-(2-fluoro-4-(hydroxycarbamoyl)benzyl)-N-(4-(trifluoromethyl)phenyl)morpholine-4-carboxamide] | 1.2 nM | 1000 nM
O=C(NO)c1ccc(CN(C(=O)N2CC(F)(F)C2)c2ccc(C(F)(F)F)cc2)c(F)c1 [Compound 578, 3,3-difluoro-N-(2-fluoro-4-(hydroxycarbamoyl)benzyl)-N-(4-(trifluoromethyl)phenyl) azetidine-1-carboxamide] | 9.3 nM | 1250 nM
